In patent US20100008965A1, “BIOCOMPATIBLE MEDICAL PRODUCTS HAVING ENHANCED ANTI-THROMBOGENIC PROPERTIES” (priority 2008, published 2010):

Experiments:
HCAEC = HCAEC cell binding assay to immobilized fibronectin polypeptides (crystal violet); type: cell-based, human; settings: immobilized peptide, 8 h, on average
Method: Human coronary artery endothelial cell (HCAEC) and human umbilical vein endothelial cell (HUVEC) primary human cells were obtained (Cambrex Corporation, East Rutherford, N.J.) and maintained according to the manufacturer's instructions at 37° C. and 5% CO2. HCAEC were grown in microvascular endothelial cell medium (EBM-2 MV, Cambrex) supplemented with 5% fetal bovine serum, 0.1% human epidermal growth factor, 0.04% hydrocortisone, 0.1% vascular endothelial growth factor, 0.4% human fibroblast growth factor-B, 0.1% R^3-insulin-like growth factor-1, 0.1% ascorbic acid, and 0.1% gentamicin and amphotericin-B (GA-1000). HUVEC were grown in endothelial cell medium (EBM, Cambrex) supplemented with 2% fetal bovine serum, 0.4% bovine brain extract, 0.1% human epidermal growth factor, 0.1% hydrocortisone, and 0.1% gentamicin and amphotericin-B (GA-1000). HCAEC and HUVEC were subcultured at 90-95% confluence using 0.05% trypsin-EDTA (Invitrogen, Carlsbad, Calif.) and used for experiments between passages 3-7 (HUVEC) or 5-11 (HCAEC).
HCAEC or HUVEC cell binding assays to immobilized recombinant fibronectin polypeptides were performed in order to ascertain which polypeptide(s) maximally support(s) alpha-4 integrin-mediated cell adhesion. Connecting Segment-1 (SEQ ID NO:1), EILDV (SEQ ID NO:2), RGDS (SEQ ID NO:3) (positive control), RGES (SEQ ID NO:4) (negative control), and EILEVPST (SEQ ID NO:5) (negative control) and were immobilized by drying overnight at room temperature in Immobilizer™ Amino 96-well microplates (Nalge Nunc International, Rochester, N.Y.). RGES, EILDV, and EILEVPST were incubated at a molar equivalent concentration equal to 200 μg RGDS per well. CS-1 was incubated at 50 μg/well. On a molar basis per well, this equates to approximately twenty-fold less CS-1 relative to RGDS. […] Cells were manually counted, and their concentration adjusted to yield a total cell population of 5×10^4 cells/well. […] Spectrometric absorbance values were read at 562 nm at room temperature using a ThermoMax microplate reader (Molecular Devices Corporation, Sunnyvale, Calif.).

human platelets = assay: 51Cr-labeled platelet adhesion to immobilized ECM proteins under shear flow; type: cell-based; settings: 16.5 dyne/cm^2, one hour; non-activated and thrombin-activated; versus CS-1 and glass control
Method: Characterization of human platelet adhesion to immobilized extracellular matrix proteins was performed by subjecting non-activated or thrombin-activated human platelets to a shear stress τ=16.5 dyne/cm^2 for one hour using a peristaltic pump-driven parallel plate fluid flow system. Washed human platelets were isolated as described above, resuspended in platelet washing buffer (PWB), and adjusted to a final concentration of approximately 0.5-1.0×10^9 platelets/ml. The platelet suspensions were incubated for thirty minutes at room temperature with 25 μCi/ml Na2^51CrO4 (GE Healthcare, Piscataway, N.J.). ^51Cr-labeled platelets were centrifuged at 2000×g for three minutes at room temperature and resuspended in 20 ml fresh frozen plasma previously thawed and warmed to 37° C. The ^51Cr-platelet/plasma solution was distributed equally (5 ml) into each of four reservoirs containing an additional 50 ml of 37° C. human plasma. For thrombin-activated platelets, 1 U thrombin (Sigma) per 3 ml platelet suspension was added immediately prior to aliquoting the ^51Cr-platelet/plasma solution into the flow loop reservoirs.
75×38×1 mm glass microscope slides were coated with ECM proteins as described above. Slides were incubated for one hour at room temperature with a 0.25% (w/v) sterile-filtered BSA solution. […]

HUVEC = HUVEC retention under unidirectional fluid flow; type: cell-based, human; settings: 15 dyne/cm^2, thirty minutes; CS-1 p=0.1, fibronectin p=0.07
Method: In addition to the above, 75×38×1 mm glass microscope slides (Fisher Scientific Research, Pittsburgh, Pa.) were sterilized and coated overnight with human plasma fibronectin or CS-1 peptide at 5 μg/cm^2, or with PBS only. Slides were incubated for one hour at room temperature with a 0.01% (w/v) sterile-filtered BSA solution. HCAEC or HUVEC were seeded in basal medium on slides at 1.85×10^4 cells/cm^2 and permitted to adhere for eight hours under static conditions at 37° C. Fluid flow was performed using parallel plate flow chambers connected to fluid flow loops, as described in Pavalko et al., Fluid shear stress inhibits TNF-alpha-induced apoptosis in osteoblasts: a role for fluid shear stress-induced activation of PI3-kinase and inhibition of caspase-3. J Cell Phys 194, 194, 2002. Briefly, endothelial cell-seeded slides were secured within flow chambers and connected to fluid flow loops. All flows were performed in a 37° C. environment with serum-free culture medium that was continually bathed in a 5% CO2 atmosphere. […] Fluorescence micrographs were captured as described above. […] Nuclei were counted from five equally distributed visual fields per slide and pooled together for each substrate condition. Data was calculated as percent (%) cell retention, where % retention=[(average nuclei count)flow÷(average nuclei count)static]×100.

## CS-1: full-length 25 amino acid polypeptide, first 25 amino acid sequence of the fibronectin type IIICS domain (DELPQLVTLPHPNLHGPEILDVPST; Homo sapien)
HCAEC
  more of the total HCAEC population adhered relative to RGES: about 20%
Human platelets
  flowed platelet binding (51Cr), both states of activation: lack of significant upregulation in platelet binding
HUVEC
  HUVEC percent retention versus control substrate: not statistically distinguishable from the control substrate
